Entries after “also recorded” stand apart in the source; their conditions may differ.

We go through four compounds from patent publication US20260240915A1, “USE OF EXTRACELLULAR VESICLES FOR THE TREATMENT OF CANCER” (HENRY FORD HEALTH SYSTEM, priority 2023, published 2026).

The subject of data set [1] is Hep3B hepatocellular carcinoma cells. Nature of the data set: MTT cell viability assay, Hep3B. The settings on record: for effect of inhibitor alone on cancer viability: CPZ 2.5 to 10 μg/ml, nystatin 5 to 30 μM; for effect of inhibitor pretreatment on the anti-cancer effect of Hypo-Exo: pretreatment with endocytosis inhibitor, then Hypo-Exo. The data set is classed as cell-based. An excerpt: (§1) Based on preliminary research, we hypothesized that under duress, cells and cell lines might generate exosomes that are deleterious specifically to malignant cells and tissue. We also speculated that exosomes could be loaded with specific microRNA (mi-RNA) that might further enhance anti-cancer activity and specificity. We initiated studies with human cerebral endothelial cells (HCEC) because […], endothelial cells would be able to release exosomes directly into the systemic circulation where they could travel to cancer sites. The initial mechanism of cellular stress we chose for the HCEC cells was oxygen-glucose deprivation (OGD). HCEC cells were exposed to OGD deprivation for a period of four hours and then exosomes were harvested and purified (See methods). HCEC cells exposed to OGD deprivation for longer than four hours started to lose viability. The “4 h-OGD-exosomes” were then tested for their effect on the viability of hepatocellular cancer cell lines, HepG2 and Hep3B, and on the benign liver cell line, THLE-2. To assay the cell viability of target cells, we used the MTT (3-(4,5-Dimethylthiazol-2-yl)-2,5-diphenyltetrazolium bromide) assay (See Methods). All cancer lines used in all of the studies are outlined in Table 1.
(§2) Cells were cultured in medium with indicated treatment.

Data set [2] relates to HepG2 hepatocellular carcinoma cells. Nature of the data set: MTT cell viability assay, HepG2. The data set is classed as cell-based. The settings on record: for effect of inhibitor alone on cancer viability: CPZ 2.5 to 10 μg/ml, nystatin 5 to 30 μM.
Description: as §1, §2

In the next data set the test system is HCC patients. To be noted: study of 600 patients; cited from earlier work.
For data set [3], the system named is primary liver cancer cells taken from patients. Nature of the data set: Viability of primary liver cancer cells from HCC patients.
Description: Exosomes were tested against primary liver cancer cells taken from the patient's tumor as well as non-malignant, normal liver cells taken from a distant site in the explant liver away from the tumor. OGD-Exo were tested along with HCEC-m214-Exo and also with the chemotherapeutic agents, oxaliplatin and Sorafenib. […] OGD-Exo were used at a dose of 10^8 p/ml to avoid excessive killing with OGD-Exo alone. Exosomes were tested against patient 11 (Pt.011) and patient 12 (Pt.012).
3-(4,5-dimethylthiazol-2-yl)-2,5 diplenyltetrazolium bromide (MTT) assay: To measure cell viability, cells were seeded in 96-well plates at a density of 800 cells per well. Cells were cultured in medium with indicated treatment. After 5 days of treatment, medium was removed and MTT was added to each well with an additional 4 hr incubation to allow mitochondrial dehydrogenase to convert MTT into insoluble formazan crystals. The absorption of solubilized formazan was measured at a wavelength of 490 nm by an ELISA plate reader (EL340 microplate reader; Bio-Tek Instruments, Winooske, VT).
In data set [4] the test system is benign THLE-2 liver cell line. Nature of the data set: MTT cell viability assay, THLE-2. Type of data set: cell-based. To be noted: benign liver cells.
Description: as §1, §2

Data set [5] relates to hepatitis B-related HCC patients. The settings on record: treatment group, advanced stage patients; cited from earlier work.

Turning to `CN(C)CCCN1c2ccccc2Sc2ccc(Cl)cc21` [CPZ, chlorpromazine], the “effect of inhibitor alone on cancer viability” value in data set [1] and in data set [2] was “did not affect cancer viability” each time. Also, the “effect of inhibitor pretreatment on the anti-cancer effect of Hypo-Exo” value in data set [1] was “significantly attenuated the anti-cancer effect of Hypo-Exo”; in data set [2] (pretreatment with endocytosis inhibitor, then Hypo-Exo), “significantly attenuated the anti-cancer effect of Hypo-Exo; also recorded: blunt the anti-tumor effect of Hypo-Exo”.

Turning to `CNC(=O)c1cc(Oc2ccc(NC(=O)Nc3ccc(Cl)c(C(F)(F)F)c3)cc2)ccn1` [Sorafenib], the viability at 0.8 µM in data set [1] (Homo sapiens, Hep3B, Hypo-Exo 10^8 p/ml, Sorafenib 0.8 µM) worked out at 80.5%. The increase in survival result in the data set on HCC patients is listed as “three”. In addition, the cytotoxicity at 1.2 µM in data set [3] (Homo sapiens, read-out: decrease in viability of primary liver cancer cells) fell in the range of 42 to 44%. Further, the viability at 1.2 µM in data set [2] (Homo sapiens, HepG2, Hypo-Exo 10^8 p/ml, Sorafenib 1.2 μM) is 67.4%. For the same compound, in data set [4], the “effect on cell viability” value was “negligible impact”. Further, the median overall survival in data set [5] is listed as 6.5 months.

Consider `C[C@@H]1[C@H](O)[C@@H](C)/C=C/C=C/CC/C=C/C=C/C=C/C=C/C(O[C@H]2O[C@H](C)[C@@H](O)[C@H](N)[C@@H]2O)CC2O[C@](O)(CC(O)C(O)CCC(O)CC(O)CC(O)CC(=O)O[C@H]1C)CC(O)C2C(=O)O` (some centres unmarked) [nystatin], for which the “effect of inhibitor alone on cancer viability” value in data set [1] and in data set [2] was “did not affect cancer viability” in each case. In addition, the “effect of inhibitor pretreatment on the anti-cancer effect of Hypo-Exo” value in data set [1] is reported as “significantly diminished the anti-cancer effect of Hypo-Exo; also recorded: blunts the effect of Hypo-Exo”.

In the case of `O=C1[O][Pt]2([NH][C@@H]3CCCC[C@H]3[NH]2)[O]C1=O` [oxaliplatin], the “decrease in viability of primary liver cancer cells” value in data set [3] (OGD-Exo 10^8 p/ml, oxaliplatin 0.06125 µM, Sorafenib 1.20 μM, Pt.011 and Pt.012) is “approximately 20%”.
